The values that follow come from publication PMC2784635 (Bioorganic & medicinal chemistry, 2008).

In the assay the test system is strobilurin resistant strain of Plasmopara viticola. The assay is described as follows: cross-resistance test on small vine plants in the glasshouse.

Consider `COC(=O)CNC(=O)/C=C\C/C=C\NC(=O)/C=C(C)/C=C/[C@H](C)[C@H](OC)[C@H](C)[C@H](/C=C/c1ccccc1)OC` [Compound 8, crocacin A], for which the “cross-resistance to strobilurin resistant Plasmopara viticola” value is recorded as “little or no cross-resistance”.
